Data from patent publication US11198713B2, “Agents modulating beta-catenin functions and methods thereof” (FOG PHARMACEUTICALS, INC., priority 2017, dated 2021).
≈ marks a conversion by molar mass, not a printed value. Read-outs that look alike come from different tables or passages of the source. Numbered stars: 1 amine (or outer) side, 2 acyl side, 3 side chain; on linkers, the order of the positions; unused ones are H or OH. Bridge positions count the residues as written; N and C are the ends. Square brackets hold non-standard residues; d marks the D form. Primed or numbered codes have the meaning given here. Ends that are not written are not given here. Peptide text beside a SMILES is read from it. MB = Monomer B = PyrS, Alloc-pyrrolidine stapling residue (allyl carbamate on pyrrolidine N); dαMeDab(Me) = CN(CC[C@@](C)(N[*:1])C(=O)[*:2])[*:3]; X1 = O=C([C@]1(N[*:1])CCN([*:3])C1)[*:2]; X2 = O=C(OCC=CCOC(=O)[*:2])[*:1]; R8 = C=CCCCCCC[C@@](C)(N)C(=O)O; S5 = C=CCCC[C@](C)(N)C(=O)O; PEG1′ = not defined here

Legend:
[1] = target: T1, full-length beta-catenin (Axin site) (Homo sapiens, UniProt P35222); test: Competition fluorescence polarization assay (Axin site probe); format: binding; details: competition fluorescence polarization, Table 2; read-out: in vitro FP EC50
T1 construct: 15 nM full-length beta-catenin, 20 nM FITC labeled peptide in buffer
T1 sequence (P35222 1-781): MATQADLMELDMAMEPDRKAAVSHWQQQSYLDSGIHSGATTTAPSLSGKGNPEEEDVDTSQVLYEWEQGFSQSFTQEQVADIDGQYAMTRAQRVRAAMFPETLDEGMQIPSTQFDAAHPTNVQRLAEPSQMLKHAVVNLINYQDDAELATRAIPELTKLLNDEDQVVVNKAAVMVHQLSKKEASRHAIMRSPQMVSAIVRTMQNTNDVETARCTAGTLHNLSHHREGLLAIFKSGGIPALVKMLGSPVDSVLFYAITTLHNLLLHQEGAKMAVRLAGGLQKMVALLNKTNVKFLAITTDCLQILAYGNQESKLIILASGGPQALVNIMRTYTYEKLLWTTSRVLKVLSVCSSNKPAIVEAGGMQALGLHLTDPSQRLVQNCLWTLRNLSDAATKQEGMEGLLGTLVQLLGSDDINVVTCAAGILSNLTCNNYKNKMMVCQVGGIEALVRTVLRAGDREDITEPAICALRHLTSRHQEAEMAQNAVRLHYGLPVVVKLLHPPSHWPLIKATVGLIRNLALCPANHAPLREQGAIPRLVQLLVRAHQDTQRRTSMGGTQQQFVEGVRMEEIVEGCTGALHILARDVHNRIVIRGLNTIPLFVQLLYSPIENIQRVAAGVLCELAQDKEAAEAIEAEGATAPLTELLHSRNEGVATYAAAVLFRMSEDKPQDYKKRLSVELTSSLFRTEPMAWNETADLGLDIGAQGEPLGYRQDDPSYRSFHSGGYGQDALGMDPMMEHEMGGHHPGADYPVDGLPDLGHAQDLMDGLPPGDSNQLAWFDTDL
Outline: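 Competition FP: 15 nM full-length β-catenin pre-incubated 5 min with 20 nM FITC-labelled stapled Axin-site peptide, then titrated peptide added (3-fold series from 5 μM) for 15 min in the dark. Buffer 50 mM Tris pH 8.0, 250 mM NaCl, 2% glycerol, 0.5 mM EDTA; duplicate reads.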

Plasma PK in rats = format: in vivo; details: IV 0.5 mg/kg, male Sprague-Dawley rats
Experimental: (§1) FIG. 6. Exemplary pharmacokinetic properties. Peptides were formulated in 10% DMSO:90% saline and dosed by IV at 0.5 mg/kg per compound in three male Sprague-Dawley rats. Serial bleed time-points were taken at 2 min, 6 min, 10 min, 15 min, 30 min, 1, 2, 4, 6, 8, 12 and 24 h and analyzed by quantitative LC/MS using a Thermo Q-Exactive Focus LC/MS/MS. Samples were prepared by protein precipitation with MeOH. Data were fit to a two-compartment model.
as §1, with “Various technologies can be utilized to assess properties of provided agents, e.g., stapled peptides, in accordance with the present disclosure. In some embodiments, plasma PK methods are used to assess” for “FIG. 6. Exemplary”, “In an exemplary assay, peptides” for “Peptides”, “model. […] Exemplary data are presented, e.g., in FIG. 6.” for “model.”

[2] = target: T2, biotinylated beta-catenin (Homo sapiens, UniProt P35222); test: Surface Plasmon Resonance (Biacore); format: binding
T2 sequence (P35222 1-781): T1 sequence (P35222 1-781)
Experimental: Additionally or alternatively, binding to beta-catenin may be measured by Surface Plasmon Resonance. In an exemplary assay, approximately 6 nmol dried peptide diluted in buffer (50 mM Tris pH 8.0, 300 mM NaCl, 2% glycerol, 0.5 mM TCEP, 0.5 mM EDTA, 0.005% Tween-20, 1 mg/mL CM Dextran, 0.02% w/v sodium azide) was assayed on a Biacore X100 using the Biacore Biotin CAPture Kit (GE Healthcare) and biotinylated beta-catenin. Results were analyzed using the Biacore X100 Evaluation Software. […] FPO217c (Isomer 2) bound to the armadillo domain of β-catenin with a Kd of 2 nM.

[3] = Solubility in DPBS (A280 of supernatant); format: physicochemical; details: DPBS
Outline: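 Dried peptide reconstituted in DPBS in triplicate, vortexed, sonicated and centrifuged. Supernatant A280 measured; concentration calculated using the tryptophan extinction coefficient.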

beta-catenin = target: T3, beta-catenin (Homo sapiens, UniProt P35222); details: reported in Grossmann et al.; cited from earlier work
T3 sequence (P35222 1-781): T1 sequence (P35222 1-781)

full-length beta-catenin [4] = target: T4, full-length beta-catenin (UniProt P35222 2-781, limits assumed); test: competition FP, displacement of a labeled probe from the axin site
T4 construct: mature; also called full-length ß-Catenin; β-catenin
T4 sequence (looked up): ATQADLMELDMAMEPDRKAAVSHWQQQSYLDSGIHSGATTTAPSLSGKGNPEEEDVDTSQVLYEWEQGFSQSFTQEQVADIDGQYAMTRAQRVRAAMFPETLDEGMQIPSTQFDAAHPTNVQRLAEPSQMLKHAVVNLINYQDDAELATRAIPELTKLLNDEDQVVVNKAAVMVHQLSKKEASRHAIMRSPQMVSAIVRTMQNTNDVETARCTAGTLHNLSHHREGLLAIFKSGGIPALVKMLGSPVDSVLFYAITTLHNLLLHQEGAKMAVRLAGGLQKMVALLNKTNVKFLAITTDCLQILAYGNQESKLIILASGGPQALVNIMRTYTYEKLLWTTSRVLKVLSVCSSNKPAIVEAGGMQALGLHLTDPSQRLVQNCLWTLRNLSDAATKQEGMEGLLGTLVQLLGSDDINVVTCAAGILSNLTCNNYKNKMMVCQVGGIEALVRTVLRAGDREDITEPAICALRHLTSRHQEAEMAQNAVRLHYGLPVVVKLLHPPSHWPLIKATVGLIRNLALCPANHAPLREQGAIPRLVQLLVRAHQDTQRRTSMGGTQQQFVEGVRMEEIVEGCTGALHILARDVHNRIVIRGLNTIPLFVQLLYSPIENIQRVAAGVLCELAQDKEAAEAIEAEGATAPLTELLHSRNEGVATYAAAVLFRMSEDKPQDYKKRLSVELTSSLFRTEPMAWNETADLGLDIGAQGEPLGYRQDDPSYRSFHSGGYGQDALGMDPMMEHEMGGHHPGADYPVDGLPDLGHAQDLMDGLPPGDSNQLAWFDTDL
Experimental: In some embodiments, a competition fluorescence polarization assay is used to assess binding of provided compounds to beta-catenin. In an exemplary procedure, solutions of provided compounds, e.g., provided stapled peptides, were prepared in a buffer (e.g., 50 mM Tris pH 8.0, 250 mM NaCl, 2% glycerol, 0.5 mM EDTA, 0.02% w/v sodium azide) using a 3-fold serial dilution from 5 µM. Probe solution (15 nM full-length ß-Catenin, 20 nM FITC labeled peptide in buffer) was prepared and incubated for a period of time, e.g., 5 minutes, and the a volume, e.g., 40 µL per well plated in suitable plate, e.g., a black polystyrene 384-well plate (Corning). Equal volume of the serial diluted peptide was added to the plate and incubated protected from light for 15 minutes prior to read. Reads were performed on a Spectramax M5 (Molecular Devices) in duplicate. Suitable probe was FITC-PEG1-PQ-S5-ILD-S5-HVRRVWR (SEQ ID NO: 1) (hydrocarbon staple formed by two S5 via olefin metathesis) and/or FITC-bA-PQ-S5-ILD-S5-HVRRVWR (SEQ ID NO: 3) (hydrocarbon staple formed by two S5 via olefin metathesis). […] Another peptide, FPO217c (Ac-AR_8ILDAHIM$B5$RVW (SEQ ID NO: 280), with N-terminal proline removed and valine replaced with isoleucine compared to FP0025c) was prepared.

full-length beta-catenin [5] = target: T4, full-length beta-catenin; test: competition FP, grade of FP EC50 (+++: <=100 nM)
Outline: (§2)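 Compound 3-fold serially diluted from 5 µM in Tris pH 8.0, 250 mM NaCl buffer, added to premixed 15 nM full-length β-catenin and 20 nM FITC-labelled stapled axin-site peptide probe. Incubated 15 min in the dark, polarization read in duplicate.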

full-length beta-catenin [6] = target: T4, full-length beta-catenin; test: competition FP, grade of FP EC50 (++: 100-500 nM)
Outline: as §2

full-length beta-catenin [7] = target: T4, full-length beta-catenin; test: competition FP; control of Table 5
[8] = Biacore, biotinylated beta-catenin, read-out: Kd
[9] = Table 3 Part A, read-out: Binding Kd
[10] = Table 3 Part A, read-out: Solubility in DPBS

Question: Which EC50 [1] does the source give for `CC[C@H](C)[C@@H]1NC(=O)[C@H](Cc2c[nH]cn2)NC(=O)[C@H](C)NC(=O)[C@H](CC(=O)O)NC(=O)[C@H](CC(C)C)NC(=O)[C@H]([C@@H](C)CC)NC(=O)[C@](C)(NC(=O)[C@H](C)NC(C)=O)CCN(C)C(=O)OCC=CCOC(=O)N2CC[C@@](C(=O)N[C@@H](CCCNC(=N)N)C(=O)N[C@H](C(=O)N[C@@H](Cc3c[nH]c4ccccc34)C(N)=O)C(C)C)(C2)NC1=O` [FP0597c, Ac-A-MG-I-L-D-A-H-I-MB-R-V-W-NH2] (Ac-A[dαMeDab(Me)]ILDAHI[X1]RVW-NH2; linker 2-9 via X2) here?
Answer: Its EC50 is under 100 nM.

Question: And the “plasma half-life compared with FP0217c (Isomer 2)” value (Plasma PK in rats)?
Answer: The value was “shorter”.

Question: What about the Kd [2, 8] of the same molecule?
Answer: Its Kd is 7 nM.

Question: What about the Kd ([2]; Table 2, read-out: Kd by SPR) of the same molecule?
Answer: The Kd was 4 nM.

Question: And the Kd [2, 9]?
Answer: Its Kd is 4 nM.

Question: What about the solubility ([3]; Table 2, read-out: Solubility) of the same molecule?
Answer: The solubility was 98 µM (≈ 158 µg/mL).

Question: What about the solubility thermodynamic [3, 10] of the same molecule?
Answer: The solubility thermodynamic was 98 µM (≈ 158 µg/mL).

Question: What about the solubility ([3]; read-out: solubility) of the same molecule?
Answer: The solubility was 98 µM (≈ 158 µg/mL).

Question: With “Ac-PEG1-RRWPRS5ILDS5HVRRVWR (SEQ ID NO: 278) ({Ac-PEG1′}-RRWPR[S5]ILD[S5]HVRRVWR; staple 6-10) [StAx-35R, "3 amino acids were added to the N-terminus of the peptide and one other Q→R mutation was made ... the resulting peptide StAx-35R"]” as the molecule, how does the “affinity compared to StAx-33” value (beta-catenin) read?
Answer: Its value is “reduced”.

Question: What does the source list for `CC[C@H](C)[C@@H]1NC(=O)[C@H](Cc2c[nH]cn2)NC(=O)[C@H](C)NC(=O)[C@H](CC(=O)O)NC(=O)[C@H](CC(C)C)NC(=O)[C@H]([C@@H](C)CC)NC(=O)[C@](C)(NC(=O)[C@H](C)NC(C)=O)CCCCCCC=CCOC(=O)N2CC[C@@](C(=O)N[C@@H](CCCNC(=N)N)C(=O)N[C@H](C(=O)N[C@@H](Cc3c[nH]c4ccccc34)C(N)=O)C(C)C)(C2)NC1=O` (single isomer, unassigned) [FPO217c Isomer 2, Ac-AR8ILDAHIMBRVW (SEQ ID NO: 280)]?
Answer: EC50 [1]: < 100 nM; half-life (Plasma PK in rats; rat, plasma): > 1 h; Kd [2, 8]: 2 nM; Kd [2, 9]: 4 nM; solubility ([3]; Table 2, read-out: Solubility): 7 µM (≈ 11.1 µg/mL); solubility [3, 10]: 12 µM (≈ 19 µg/mL)

Question: Which EC50 (full-length beta-catenin [4]) does the source give for Ac-PA[R8]ILDAHV[MB]RVW-NH2 (staple 3-10) [FP0025c] here?
Answer: Its EC50 is under 100 nM.

Question: What about the “FP EC50” value (full-length beta-catenin [5]) of the same molecule?
Answer: Its value is at most 100 nM.

B1: FP0787s (peptide)
peptide: Ac-PQ[S5]ILD[S5]HVRRVWR-NH2
modifications: staple 3-7
SMILES: CC[C@H](C)[C@@H]1NC(=O)[C@@](C)(NC(=O)[C@H](CCC(N)=O)NC(=O)[C@@H]2CCCN2C(C)=O)CCCC=CCCC[C@@](C)(C(=O)N[C@@H](Cc2c[nH]cn2)C(=O)N[C@H](C(=O)N[C@@H](CCCNC(=N)N)C(=O)N[C@@H](CCCNC(=N)N)C(=O)N[C@H](C(=O)N[C@@H](Cc2c[nH]c3ccccc23)C(=O)N[C@@H](CCCNC(=N)N)C(N)=O)C(C)C)C(C)C)NC(=O)[C@H](CC(=O)O)NC(=O)[C@H](CC(C)C)NC1=O
notes: also called S5/S5
Question: What does the source list for B1?
Answer: FP EC50 (full-length beta-catenin [6]): 100 to 500 nM; EC50 (full-length beta-catenin [7]): ~100 nM
